Earlier results, collected in US11261215B2, “Somatostatin prodrugs” (YISSUM RESEARCH DEVELOPMENT COMPANY OF THE HEBREW …, priority 2017, dated 2022).
Numbered stars: 1 amine (or outer) side, 2 acyl side, 3 side chain; on linkers, the order of the positions; unused ones are H or OH. Bridge positions count the residues as written; N and C are the ends. Square brackets hold non-standard residues; d marks the D form. Ends that are not written are not given here. PheC3 = Phe building unit, N-alpha-omega-functionalized derivative for backbone cyclization; N(2-aminoethyl)Phe = O=C([C@H](Cc1ccccc1)N(CCN[*:3])[*:1])[*:2]; dNMeW = CN[C@H](Cc1c[nH]c2ccccc12)C(=O)O; NMeF = CN[C@@H](Cc1ccccc1)C(=O)O; NMeK = CN[C@@H](CCCCN)C(=O)O

Columns and labels:
somatostatin receptors = settings: cited from earlier work
[1] = system: GH, glucagon and insulin secretion; settings: cited from earlier work
[2] = system: amylase and lipase release from the pancreas; settings: in vivo; cited from earlier work
SSTR5 = SSTR5 (Homo sapiens, UniProt P35346); settings: cited from earlier work
[3] = rats, oral administration; cited from earlier work

Chain of SSTR5 (P35346 whole entry, species assumed): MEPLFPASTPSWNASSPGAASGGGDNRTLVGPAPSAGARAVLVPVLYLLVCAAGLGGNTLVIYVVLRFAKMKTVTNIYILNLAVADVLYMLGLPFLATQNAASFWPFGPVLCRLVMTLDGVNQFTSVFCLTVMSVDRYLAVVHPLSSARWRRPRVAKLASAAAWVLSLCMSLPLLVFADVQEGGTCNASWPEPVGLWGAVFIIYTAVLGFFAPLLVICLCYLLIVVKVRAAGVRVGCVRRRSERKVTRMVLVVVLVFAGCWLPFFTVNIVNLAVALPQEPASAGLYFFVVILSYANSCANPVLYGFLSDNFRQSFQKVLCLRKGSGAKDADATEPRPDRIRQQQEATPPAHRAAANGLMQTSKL

For “GABA-Phe-Trp-DTrp-Lys-Thr-Phe-GlyC3-NH2 (XFWWKTFG; not fully specified; GABA, backbone cyclized, C-terminal amide; MOD_RES (1)..(1) 4Abu, GABA; MOD_RES (1)..(8) backbone-to-end cyclization between the N-alpha-omega-functionalized derivative of GlyC3 and the N-terminus; MOD_RES (4)..(4) D-Trp; MOD_RES (8)..(8) AMIDATION; MOD_RES (8)..(8) GlyC3 building unit) [PTR-3173]”, the “selectivity toward the somatostatin receptors” value (somatostatin receptors) is given as “selective towards the SSTR2, SSTR4 and SSTR5”, the “effect on insulin secretion” value ([1]; at physiological concentrations) is given as “no effect” and the “GH:insulin potency ratio” value ([1]; in vivo) is given as > 10,000. The “potency in the in vivo inhibition of GH relative to that of glucagon” value ([1]; in vivo) was 1000 fold.
For “PheC3-Cys-Phe-DTrp-Lys-Thr-Cys-Phe-PheN3-X (FCFWKTCFF; not fully specified; backbone cyclized; MOD_RES (1)..(1) PheC3 building unit; MOD_RES (1)..(9) backbone cyclization between the N-alpha-omega- functionalized derivative of X1 and the N-alpha-omega- functionalized derivative of X9; DISULFID (2)..(7) bridge; MOD_RES (4)..(4) D-Trp; MOD_RES (9)..(9) PheN3 building unit; MOD_RES (9)..(9) AMIDATION) [PTR-3205]”, the “selectivity toward the somatostatin receptors” value (somatostatin receptors) is given as “selective towards SSTR2”.
For “PheN2-Tyr-DTrp-Lys-Val-PheC3-Thr-NH2 ([N(2-aminoethyl)Phe]Y[dW]KV[PheC3]T-NH2; bridge 1-6; not fully specified (bridges); printed as PheN2-Tyr-DTrp-Lys-Val-PheC3-Thr-NH2) [PTR-3046]”, the “bombesin- and caerulein-induced amylase and lipase release from the pancreas” value [2] is listed as “inhibits”, the “selectivity toward the somatostatin receptors” value (somatostatin receptors) is listed as “selective toward the SSTR5” and the “GH or glucagon release” value ([1]; in vivo) is listed as “without inhibiting”. The IC50 (SSTR5) was “nanomolar range”.
In the case of “c(PF(NMe)w(NMe)KT(NMe)F) (cyclo(PF[dNMeW][NMeK]T[NMeF]); SMILES C[C@@H](O)[C@@H]1NC(=O)[C@H](CCCCN)N(C)C(=O)[C@@H](Cc2c[nH]c3ccccc23)N(C)C(=O)[C@H](Cc2ccccc2)NC(=O)[C@@H]2CCCN2C(=O)[C@H](Cc2ccccc2)N(C)C1=O) [Somato8]”, the “calculated absolute oral bioavailability” value [3] is given as about 10%.
